The values that follow come from US12440498B2 (priority 2020, dated 2025).

In general, pEC50 refers to the negative decadic logarithm of the EC50, by convention in mol/L.

Structures are written as SMILES. pEC50, pIC50: −log10 of the molar value. Like-named read-outs stand apart in the source and are kept apart here.

The subject of one series is influenza. The conditions noted are these: human, in vivo; cited from earlier work.
The conditions of series [1]: human, in vivo; cited from earlier work.
In series [2] the test system is A/H1N1nLuc recombinant virus. The series can be described thus: microbe, parasite or virus in culture. It counts as cell-based, influenza A virus.
The subject of series [3] is A/H1N1 pdm09 (A/Lyon/969/2009 H1N1). It counts as cell-based, influenza A virus.
The conditions of series [4]: in vivo; cited from earlier work.
The next series deals with A/H1N1 virus. The series can be described thus: microbe, parasite or virus in culture. In kind it is cell-based, influenza A virus.
Series [5] relates to recombinant A/H1N1 pdm09 wildtype (WT). In kind it is cell-based.
Series [6] has as its system A/H3N2 (A/Texas/50/2012 H3N2). It counts as cell-based, influenza A virus.
The test system of a further series is flu virus. The note with it: human, in vivo, po; cited from earlier work.

In the case of `CCOC(=O)C1=C[C@@H](OC(CC)CC)[C@H](NC(C)=O)[C@@H](N)C1` [oseltamivir], the “median time to cessation of viral shedding” value in the series on influenza is 72 h.
Turning to `COC(=O)OCOc1c2n(ccc1=O)N([C@@H]1c3ccccc3SCc3c1ccc(F)c3F)[C@@H]1COCCN1C2=O` [baloxavir marboxil], in series [1], the “patients with mainly digestive side effects (nausea, diarrhea, etc.)” value is given as 4-5%. Further, the “median time to cessation of viral shedding” value with influenza is 48 h.
Turning to `NC(=O)c1nc(F)c[nH]c1=O` [favipiravir], the pEC50 in [2] (Influenza A virus, A549) is 5.60.
As to `O=C1c2c(O)c(=O)ccn2N([C@@H]2c3ccccc3SCc3c2ccc(F)c3F)[C@@H]2COCCN12` [baloxavir, baloxavir acid], the figures for the “reduction of production of A/H1N1 infectious particles” value in [3] and in series [5] were 4 log 10 and 3 log 10, respectively. Besides, in [4], the “half-life (hepatic elimination)” value is 50 to 90 h. Also, the “increase of IC50 relative to the initial IC50” value in the series on A/H1N1 virus is given as 35 times. For the same compound, in series [2] (Influenza A virus, A549), the pEC50 was 9.84. The “reduction of production of A/H3N2 infectious particles” value in series [6] is reported as 3 log 10.
Turning to `COc1ccc([C@@H]2Sc3ccccc3N(CCN(C)C)C(=O)[C@@H]2OC(C)=O)cc1.Cl` [diltiazem], the pIC50 with A/H1N1 virus (Influenza A virus, H1N1, MDCK, read-out: median inhibitory concentration (IC50)) was 5.30. Further, the pEC50 in [2] was 4.27; in series [2] (Influenza A virus, A549), 4.30.
For the compound `NC(=O)c1ncn([C@@H]2O[C@H](CO)[C@@H](O)[C@H]2O)n1` [ribavirin], the “efficacy against flu virus” value with flu virus was “not effective”.
